Measured values: ChEMBL document CHEMBL1137960, “Miraziridine A: natures blueprint towards protease class-spanning inhibitors” (Bioorg Med Chem Lett, 2004)
Non-standard residues stand in square brackets, D forms with d. Residues, ends and D or L forms follow the SMILES beside them. ξ: configuration not given here. *: point of attachment. Sta = CC(C)C[C@H](N)[C@@H](O)CC(=O)O; X1 = CC(=O)c1cn(*)c2ccccc12; Isovaleryl = CC(C)CC(=O)*; ξIva = CCC(C)(N)C(=O)O

Assays:
[1] = target: Procathepsin L (Homo sapiens) (UniProt P07711); assay: Second order rate constant for cathepsin L
[2] = target: Cathepsin B (Homo sapiens) (UniProt P07858); assay: Second order rate constant for cathepsin B
Pepsin A = Pepsin A (Sus scrofa, UniProt P00791); assay: (§1) Inhibitory activity against aspartyl protease pepsin
[3] = target: Cathepsin B (Homo sapiens) (UniProt P07858); assay: Inhibitory activity against cysteine protease cathepsin B
[4] = target: Serine protease 1 (Homo sapiens) (UniProt P07477); assay: Inhibitory activity against serine protease trypsin
Pepsin A (Sus scrofa) = Pepsin A (Sus scrofa) (UniProt P00791); assay: as §1
[5] = target: Procathepsin L (Homo sapiens) (UniProt P07711); assay: Inhibitory activity against cysteine protease cathepsin L

Chain of Pepsin A (P00791 whole entry): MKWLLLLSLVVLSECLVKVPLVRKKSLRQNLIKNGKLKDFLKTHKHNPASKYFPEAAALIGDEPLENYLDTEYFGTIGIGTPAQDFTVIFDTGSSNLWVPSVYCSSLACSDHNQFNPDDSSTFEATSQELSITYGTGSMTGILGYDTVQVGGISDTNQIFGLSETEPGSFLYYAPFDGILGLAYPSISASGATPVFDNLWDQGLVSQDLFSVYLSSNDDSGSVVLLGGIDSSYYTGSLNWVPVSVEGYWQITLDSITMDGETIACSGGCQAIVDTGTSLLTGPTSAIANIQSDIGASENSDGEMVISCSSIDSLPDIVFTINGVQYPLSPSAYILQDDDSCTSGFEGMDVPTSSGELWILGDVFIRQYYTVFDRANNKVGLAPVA
Chain of Procathepsin L (Homo sapiens) (P07711 114-333 limits assumed): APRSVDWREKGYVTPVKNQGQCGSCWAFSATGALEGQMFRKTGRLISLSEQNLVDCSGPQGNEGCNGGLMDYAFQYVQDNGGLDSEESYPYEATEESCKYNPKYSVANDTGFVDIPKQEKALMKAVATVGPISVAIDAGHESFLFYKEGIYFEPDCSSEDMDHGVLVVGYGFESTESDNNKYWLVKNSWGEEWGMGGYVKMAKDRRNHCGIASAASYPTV
Chain of Serine protease 1 (Homo sapiens) (P07477 whole entry): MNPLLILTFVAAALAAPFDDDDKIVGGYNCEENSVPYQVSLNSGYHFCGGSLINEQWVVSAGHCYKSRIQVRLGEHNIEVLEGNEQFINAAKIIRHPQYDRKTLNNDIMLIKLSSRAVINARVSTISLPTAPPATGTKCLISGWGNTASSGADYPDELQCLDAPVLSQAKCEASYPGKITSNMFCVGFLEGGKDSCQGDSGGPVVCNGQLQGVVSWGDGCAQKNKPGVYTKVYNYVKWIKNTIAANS
Chain of Pepsin A (Sus scrofa) (P00791 60-385 limits assumed): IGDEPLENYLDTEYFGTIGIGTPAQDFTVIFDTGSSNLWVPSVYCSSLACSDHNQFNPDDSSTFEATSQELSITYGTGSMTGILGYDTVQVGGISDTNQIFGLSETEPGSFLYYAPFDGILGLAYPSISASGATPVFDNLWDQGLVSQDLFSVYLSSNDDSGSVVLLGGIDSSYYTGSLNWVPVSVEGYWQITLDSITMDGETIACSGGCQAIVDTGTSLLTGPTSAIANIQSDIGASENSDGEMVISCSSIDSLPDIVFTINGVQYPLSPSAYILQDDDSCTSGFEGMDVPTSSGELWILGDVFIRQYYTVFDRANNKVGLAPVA

With CC(C)CCNC(=O)[C@H](CC(C)C)NC(=O)[C@@H]1N[C@H]1C(=O)O the k2/Ki [1] was 120000 M⁻¹ s⁻¹ and the k2/Ki [2] was 17000 M⁻¹ s⁻¹.

With CCC(C)(N)C(=O)N[C@H](C(=O)N[C@@H](CC(C)C)[C@@H](O)CC(=O)N[C@@H](C)C(=O)n1cc(C(C)=O)c2ccccc21)C(C)C (some centres undefined) (H-[ξIva]V[Sta]A-X1) the Ki (Pepsin A) was 3 nM.

For CC(C)CC(=O)N[C@H](C(=O)N[C@H](C(=O)N[C@@H](CC(C)C)[C@@H](O)CC(=O)N[C@@H](C)C(=O)N[C@@H](CC(C)C)[C@@H](O)CC(=O)O)C(C)C)C(C)C (Isovaleryl-VV[Sta]A[Sta]-OH), the Ki (Pepsin A) was 0.046 nM.

CC[C@H](NC(=O)C[C@H](O)[C@H](CC(C)C)NC(=O)[C@H](CC(C)C)NC(=O)[C@@H]1N[C@H]1C(=O)O)C(=O)N[C@H](/C=C/C(=O)O)CCCN=C(N)N [MIRAZIRIDINE A] was tested, and the Affinity [3] was 15000 M⁻¹ s⁻¹, the Affinity [4] was 60 µM and the Ki (Pepsin A) was 14 nM. The Affinity (Pepsin A (Sus scrofa)) was 14 nM and the Affinity [5] was 1e+06 M⁻¹ s⁻¹.
